Test results as given in PubChem BioAssay (NCI).
Where “and” joins values, the source holds several entries; their conditions need not be identical. Equal values may be shown once.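 These data come from cells grown in 96-well plates and exposed to compound for 48 hours at five concentrations. GI50 = concentration required for 50% inhibition of growth. TGI is the concentration that stops growth completely.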

What was measured:
Assay in all cases: NCI anticancer screen, dose series, 48 h
HCT-116 colon = system: HCT-116 colon
KM20L2 colon = system: KM20L2 colon
LOX IMVI melanoma = system: LOX IMVI melanoma
LXFL 529 NSCLC = system: LXFL 529 NSCLC
M14 melanoma = system: M14 melanoma
NCI-H226 lung = system: NCI-H226 lung
OVCAR-8 ovarian = system: OVCAR-8 ovarian
RXF 393 renal = system: RXF 393 renal
SK-MEL-2 melanoma = system: SK-MEL-2 melanoma
SNB-78 CNS = system: SNB-78 CNS
SR leukemia = system: SR leukemia
UO-31 renal = system: UO-31 renal
DMS 114 small cell lung = system: DMS 114 small cell lung
DMS 273 small cell lung = system: DMS 273 small cell lung
HOP-18 NSCLC = system: HOP-18 NSCLC
M19-MEL melanoma = system: M19-MEL melanoma

| Structure (SMILES) | TGI (HCT-116 colon) [µM] | TGI (KM20L2 colon) [µM] | TGI (LOX IMVI melanoma) [µM] | TGI (LXFL 529 NSCLC) [µM] | TGI (M14 melanoma) [µM] | TGI (NCI-H226 lung) [µM] | TGI (OVCAR-8 ovarian) [µM] | GI50 (RXF 393 renal) | TGI (RXF 393 renal) | TGI (SK-MEL-2 melanoma) [µM] | TGI (SNB-78 CNS) [µM] | TGI (SR leukemia) [µM] | TGI (UO-31 renal) | GI50 (LOX IMVI melanoma) [µM] | TGI (DMS 114 small cell lung) [µM] | TGI (DMS 273 small cell lung) [µM] | TGI (HOP-18 NSCLC) [µM] | TGI (M19-MEL melanoma) [µM] | GI50 (SK-MEL-2 melanoma) |
| --- | --- | --- | --- | --- | --- | --- | --- | --- | --- | --- | --- | --- | --- | --- | --- | --- | --- | --- | --- |
| COc1ccc(-c2nc(SC)n(C3OC(COC(C)=O)C(OC(C)=O)C(OC(C)=O)C3OC(C)=O)c(=O)c2C#N)cc1 (stereo unspecified) | > 100 | > 100 | > 100 | > 100 | > 100 | > 100 | > 100 | 16.5 µM and > 100 µM | 35.4 µM and > 100 µM | > 100 | 57.8 | > 100 | 77.6 µM and > 100 µM | – | – | – | – | – | – |
| CCOC(=O)/C=C(/C(=O)OCC)n1ccc(=O)n(CC(=O)OCC)c1=O | 2.57 | – | 1.81 | – | 2.73 | 5.31 | 6.41 | – | 2.52 µM | 12.1 | – | 3.61 | 3.03 µM | 0.422 | – | – | – | – | – |
| COc1ccc2c(c1)C(=O)[C@@](Nc1ccc(C=O)cc1)(OC)[C@@](OC)(c1ccc([N+](=O)[O-])cc1)O2 | > 10 | – | > 10 | – | > 10 | > 10 | > 10 | – | > 10 µM | > 10 | – | > 10 | > 10 µM | – | – | – | – | – | – |
| COc1ccc2c(c1)c(=O)c1c(NCCCN(C)C)ccc3ncn2c31 | 13 | 17.1 | 4.86 | 19.8 | 12.9 | 22.2 | 9.4 | – | 2.28 µM | 22.1 | 23.5 | > 44.9 | 16.1 µM | – | 22.6 | 15.5 | 28.6 | 24.8 | – |
| O=C1CSC(c2cccc(Oc3ccccc3)c2)N1c1cccc(Cl)c1Cl (stereo unspecified) | 38.5 | – | 34.3 | – | > 100 | > 100 | 45.9 | – | > 100 µM | 34.9 | – | 53.8 | > 100 µM | – | – | – | – | – | – |
| O=C1NC(N2CCCCC2)=N/C1=C\c1ccccc1 | > 100 | – | > 100 | – | > 100 | > 100 | > 100 | – | > 100 µM | > 100 | – | > 100 | > 100 µM | – | – | – | – | – | – |
| C(/C=C/Nc1ccc(-c2ccccc2)cc1)=Nc1ccc(-c2ccccc2)cc1 | > 100 | – | > 100 | – | > 100 | > 100 | > 100 | – | > 100 µM | > 100 | – | > 100 | > 100 µM | – | – | – | – | – | – |
| Cn1c(O)c(C=Nc2ccc(Cl)cc2Cl)c(=O)n(C)c1=O | > 100 | – | > 100 | – | > 100 | > 100 | > 100 | – | > 100 µM | > 100 | – | > 100 | > 100 µM | – | – | – | – | – | – |
| CCN(CCCl)c1cc(CN(C)C)cc(NC(=O)c2ccc(C(=O)Nc3ccccc3)cc2)c1 | 11.5 | – | 0.634 | – | 5.44 | 5.92 | 6.34 | – | 0.307 µM | 0.519 | – | 1.16 | 4.4 µM | – | – | – | – | – | – |
| CCOc1cc(/C=C2\N=C(c3ccccc3)N(c3nc4ccccc4s3)C2=O)ccc1O | > 100 | – | > 100 | – | > 100 | > 100 | > 100 | – | > 100 µM | 62.1 | – | > 100 | > 100 µM | – | – | – | – | – | – |
| CC(C)C[C@H](NC(=O)CCc1cccc2ccccc12)B(O)O | 2.91 | – | 1.77 | – | 3.72 | 0.392 | 19.6 | – | 2.03 µM | 6.74 | – | 2.2 | 8.73 µM | – | – | – | – | – | – |
| Cc1ccc(NC(=S)N=Nc2c(O)[nH]c3ccccc23)cc1 | > 100 | – | > 100 | – | > 100 | > 100 | > 100 | – | > 100 µM | > 100 | – | > 100 | > 100 µM | – | – | – | – | – | – |
| O=C1c2cc([N+](=O)[O-])sc2C(=O)c2cc([N+](=O)[O-])sc21 | 3.24 | – | 3.68 | – | 9.25 | 26.3 | 18.6 | – | 15.5 µM | 21.4 | – | 6 | 7.68 µM | – | – | – | – | – | – |
| CNC(=O)OCC1=C(COC(=O)NC)C(C)N(c2ccccc2)C1 (stereo unspecified) | > 100 | – | > 100 | – | 65.8 | 77.3 | > 100 | – | > 100 µM | 70.6 | – | 67.4 | > 100 µM | – | – | – | – | – | – |
| COc1ccc(S(=O)(=O)Nc2ccc(-c3csc(N4C(=O)/C(=C/c5cccs5)N=C4c4ccccc4)n3)cc2)cc1Cl | > 100 | – | > 100 | – | > 100 | > 100 | > 100 | – | > 100 µM | > 100 | – | > 100 | 86.3 µM | – | – | – | – | – | – |
| COc1ccc2c(c1)C=C(C(C)(C)C)NS2(=O)=O | > 100 | > 100 | > 100 | > 100 | > 100 | > 100 | > 100 | – | > 100 µM | > 100 | > 100 | > 100 | > 100 µM | – | > 100 | > 100 | > 100 | > 100 | – |
| C[C@H](CO)C1=CC(C#C[Si](C)(C)C)N(C(=O)Oc2ccccc2)c2ccccc21 (stereo partly specified) | 22.7 | – | 33.5 | – | 22 | 34.6 | 42.9 | – | 23 µM | 30.2 | – | 82.5 | 21.4 µM | – | – | – | – | – | – |
| N#CC1=C(S)N(C2OC(CO)C(O)C(O)C2O)C(c2ccccc2)=CC1c1cccs1 (stereo unspecified) | 75.7 | – | 36.9 | – | > 100 | 41.3 | 65.9 | – | 40 µM | 50.2 | – | > 100 | > 100 µM | – | – | – | – | – | – |
| COc1cc2c3cc1Oc1c(OC)c(OC)cc4c1C(Cc1ccc(O)c(c1)-c1cc(ccc1OC)CC3N(C)CC2)N(C)CC4 (stereo unspecified) | > 100 | – | 83 | – | 15.5 | > 100 | 46.3 | – | 6.7 µM | 43 | – | 28.4 | 29.2 µM | – | – | – | – | – | – |
| CC1(C)CC[C@]2(C(=O)O)CC[C@]3(C)C(=CC[C@@H]4[C@@]5(C)CC[C@H](OC6OC(CO)C(O)C(O)C6O)C(C)(C)[C@@H]5CC[C@]43C)[C@@H]2C1 (stereo partly specified) | 3.13 | – | 3.23 | – | 3.12 | 3.4 | 3.12 | – | 3.77 µM | 3.15 | – | 5.53 | 3.1 µM | – | – | – | – | – | – |
| Brc1ccc(C2CC3(c4ccccc4)ON=C(c4ccccc4)N3c3ccccc3S2)cc1 (stereo unspecified) | > 100 | – | > 100 | – | > 100 | > 100 | > 100 | – | > 100 µM | > 100 | – | > 100 | > 100 µM | – | – | – | – | – | – |
| CCSc1nc(C)nc2c1sc1nc3ccccc3n12 | > 100 | – | > 100 | – | > 100 | > 100 | > 100 | – | > 100 µM | > 100 | – | > 100 | > 100 µM | – | – | – | – | – | – |
| FC(F)(F)C1(c2ccccc2)SCc2nc3ccccc3n21 (stereo unspecified) | > 100 | – | > 100 | – | > 100 | > 100 | > 100 | – | > 100 µM | > 100 | – | > 100 | > 100 µM | – | – | – | – | – | – |
| O=C(NNC(=O)c1c(Cl)c(Cl)c(Cl)c(Cl)c1-c1nc2ccccc2[nH]1)c1ccc(Cl)cc1 | > 100 | – | > 100 | – | > 100 | > 100 | > 100 | – | > 100 µM | > 100 | – | > 100 | > 100 µM | – | – | – | – | – | – |
| Cc1cc(=O)n2nc(CSc3n[nH]c(=S)s3)sc2n1 | > 100 | – | > 100 | – | > 100 | > 100 | > 100 | – | > 100 µM | > 100 | – | > 100 | > 100 µM | – | – | – | – | – | – |
| Cc1c(C#N)c(N)n(C2OC(CO)C(O)C(O)C2O)c(=S)c1C#N (stereo unspecified) | > 100 | – | > 100 | – | > 100 | > 100 | > 100 | – | > 100 µM | > 100 | – | > 100 | > 100 µM | – | – | – | – | – | 28.8 µM and > 100 µM |
| Nc1nc(Cl)c(C=O)c(NCC2(CO)CCC2)n1 | 40.6 | – | 26.9 | – | > 100 | 34 | 33.8 | – | 50.1 µM | 28.3 | – | 43.8 | 58.6 µM | – | – | – | – | – | – |
| CC(c1ccccc1)C(O)S(=O)(=O)O (stereo unspecified) | > 100 | > 100 | > 100 | > 100 | > 100 | > 100 | > 100 | – | > 100 µM | > 100 | > 100 | – | > 100 µM | – | > 100 | > 100 | > 100 | > 100 | – |
| C[C@H]1[C@H](C)CC[C@]2(C(=O)OC3OC(CO)C(O)C(O)C3O)CC[C@]3(C)C(=CC[C@@H]4[C@@]5(C)C[C@@H](O)[C@@H]6OC(=O)c7cc(O)c(O)c(O)c7-c7c(cc(O)c(O)c7O)C(=O)OC[C@]6(CO)[C@@H]5CC[C@]43C)[C@H]12 (stereo partly specified) | > 100 | – | 25.8 | – | > 100 | > 100 | > 100 | – | > 100 µM | > 100 | – | 73.3 | > 100 µM | – | – | – | – | – | – |
| C[C@]12CC/C(=N\O)C=C1CC[C@@H]1[C@@H]2CC[C@]2(C)C(=N/O)/C(=C/c3ccncc3)C[C@@H]12 | 47.4 | – | > 100 | – | 34 | 87.3 | > 100 | – | > 100 µM | 34.2 | – | 62.2 | 24.3 µM | – | – | – | – | – | – |
